Test results: patent US5021439A, “Cerebral function ameliorating agents related to Tan-950 A” (priority 1988, dated 1991)
Where two headings read alike, the source gives them in different places.

What was measured:
[1] = target: Quisqualate-type receptor; assay: Binding assay of Quisqualate-type receptor (3H-AMPA) on rat forebrain crude synaptic membrane; settings: for IC50: 5 nM 3H-AMPA, pH 7.1, 0° C., 90 min, read-out: Affinity to Quisqulate-type receptor (3H-AMPA), IC50; for Affinity to the Quisqualate-type-receptor (in words): summary of Table 5
From the text: (§1) The receptors of the exitatory amino acid (especially, glutamate) are classified into NMDA type, Quisqualate type and Kainate type. 3H-CPP [3-(2-carboxypiperazin-4-yl)propyl-1-[…]] as the ligand (a radio active substance which has high affinity for the receptor) for the NMDA-type-receptor, ^3 H-AMPA (DL-α-amino-3-hydroxy-5-methylisoxazole-4-propionic acid) as the ligand for the quisqualate-type-receptor, and ^3 H-kainic acid as the ligand for the kainate-type-receptor were used respectively. A sample of the crude synaptic membrane prepared from the forebrain of rat was washed 4 times by Tris hydrochloric acid buffer (pH 7.1) and kept in a freezing condition at -20° C. until its use.
(§2) Samples of the frozen crude synaptic membrane were melted and, after floating on 50 mM Tris hydrochloric acid buffer (pH 7.1), incubated for 30 minutes at 37° C. After the incubation, the synaptic membrane was centrifuged (48,000×g) and washed 3 times with 50 mM Tris hydrochloric acid buffer and used in the test.
(§3) In the binding assay of the NMDA-type-receptor, samples of the synaptic membrane were incubated in the presence or absence of a test compound together with 10 nM ^3 H-CPP in 50 mM Tris hydrochloric acid buffer (pH 7.1, 0° C.) for 15 minutes. The sediment (pellet) containing synapse membrane which was recovered by centrifugation of the incubation solution was rinsed with 50 mM Tris hydrochloric acid buffer (pH 7.1) and dissolved in 0.5 ml of Protosol® (made by New England Nuclear Inc.). In the binding assay of Quisqualate-type-receptor and Kainate-type-receptor, samples of the synapse was incubated in the presence or absence of a test compound in 5 nM ^3 H-AMPA (Quisqualate-type-receptor) or 2 nM ^3 H-Kainic acid (Kainate-type-receptor) together with 50 mM Tris hydrochloric acid buffer (pH 7.1, 0° C.) for 90 minutes. The solution was filtered with Whatman GF/B filter (Whatman®, made by Whatman Inc.) under reduced pressure and the filter was washed 3 times with 50 mM Tris hydrochloric acid buffer. The radioactivity on the filter was measured by a conventional method. The specific binding amount was determined by subtracting the non-specific binding from the total binding, taking the binding in the presence of an excessive non-radioactive L-sodium glutamate (1 mM) as the amount of the non-specfic binding, i.e., the binding to anything other than the receptor.

[2] = test system: glutamate receptor (NMDA type, Quisqualate type and Kainate type); assay: Affinity for the glutamate receptors of the brain, 3 sub-types taken together; type: binding, rat; settings: summary of Table 5
From the text: as §1, §2
as §3, with “receptor. The 50% inhibiting concentration (IC50) of the compound to be tested was determined as the concentration which inhibits 50% of the specific receptor binding of ^3 H-CPP, ^3 H-AMPA or ^3 H-kainic acid.” for “receptor.”

[3] = target: NMDA-type receptor; assay: Binding assay of NMDA-type receptor (3H-CPP) on rat forebrain crude synaptic membrane; settings: for IC50: 10 nM 3H-CPP, pH 7.1, 0° C., 15 min, read-out: Affinity to NMDA-type receptor (3H-CPP), IC50; for Affinity to the NMDA-type-receptor (in words): summary of Table 5
From the text: as §1, §2
as §3, with “receptor. The 50% inhibiting concentration (IC50) of the compound to be tested was determined as the concentration which inhibits 50% of the specific receptor binding of ^3 H-CPP, ^3 H-AMPA or ^3 H-kainic acid.” for “receptor.”

[4] = target: Kainate-type receptor; assay: Binding assay of Kainate-type receptor (3H-kainic acid) on rat forebrain crude synaptic membrane; settings: for Affinity to Kainate-type receptor (3H-KA), IC50: 2 nM 3H-Kainic acid, pH 7.1, 0° C., 90 min; for Affinity to the Kainate-type-receptor (in words): summary of Table 5
From the text: as §1, §2, §3

[5] = test system: neurons of rat hippocampus; assay: Excitatory action on neurons of rat hippocampus in vitro (CA1 spike recording in slices); type: cell-based; settings: rat hippocampal slices, CA1 pyramidal cell layer, Krebs-Ringer solution 33° C., read-out: Minimum effective concentration to induce firing of hippocampus nervous cell
Description: Male Wister rats (body weight: 300 -350 g) were used in the test. After cutting the head of rats, the brain was quickly taken out and […] thickness of the sliced samples of a hippocampus was prepared by a slice cutter. These samples were incubated in a nutrient solution (Krebs-Ringer solution, 33° C.) saturated with a mixed gas of 95% of oxygen gas and 5% of carbon dioxide gas for one or more hours. The test was carried out in the perfusion cisterna with perfusing at the flow speed of 1.5 ml/min. The action potential (spike) in CA1 pyramidal cell layer of the hippocampus was recorded extracellularlly by using a glass electrode filled with 2M NaCl solution. The test compounds were added to the perfusate and the change in number of the spikes with passage of time was counted by a pulse counter and recorded on the recorder. The Krebs-Ringer's solution contains 124 mM of NaCl, 5 mM of KCl, 1.24 mM of KH2 PO4, 1.3 mM of MgSO4, 2.4 mM of CaCL2, 26 mM of […] and 10 mM of glucose.

[6] = test system: Memory Dysfunction Induced by Cycloheximide Administration; assay: Improvement of cycloheximide-induced memory dysfunction, passive avoidance in mice; type: in vivo, C57BL/b mice; settings: for Tested Retention Time (percentage to control group), latency: i.p., twice, 30 min before acquisition and before retention test, memory impairment group = 100; for Effect on memory dysfunction / latency (in words): mouse, in vivo
Description: Experimental memory disturbance was induced by administering a protein synthesis inhibiting agent, cycloheximide to C57BL/b male mice of 5 week-age. The memory test was carried out using a passive avoidance learning equipment consisting of two chambers of dark and bright. At first, a memory acquisition process of mice was carried out. In this process, a mouse was released in the bright chamber and the guillotine type door connecting between bright and dark chambers was open. Immediately after the mouse that likes a dark place having entered into the dark chamber, said guillotine type door was closed and an electric shock of 0.4 mA was given to the mouse for 3 seconds through the floor grid. Mice learned through this process to receive electric shock from the floor once they move to the dark chamber. However, the memory formation in mice that received cycloheximide (60 mg/Kg) subcutaneously 30 minutes before this memory acquisition process becomes insufficient. The memory retention test was carried out in accordance with similar procedures with mice which received cycloheximide (memory dysfunction group) and normal mice on the next day that the memory acquisition process was carried out. A time from the release of mice in the bright chamber to the entry into the dark chamber through the guillotine type door opened was measured (latency). The latency was shorter in the memory dysfunction group and the effectiveness of the compounds was determined in terms of a degree of the prolongation of latency. The test compounds were intraperitoneally administered twice in total to the mice each 30 minutes before the memory acquisition process and the memory keeping test.
The effect of the compounds in improving a memory dysfunction was expressed as a percentage in which the latency in the memory impairment group at the memory retention test was regarded as 100, and the results are shown in Table 7.

Structure (SMILES) | IC50 [1] [µM] | Affinity to the Quisqualate-type-receptor (in words) [1] | Affinity to the 3 sub-type receptors (in words) [2] | IC50 [3] [µM] | Affinity to Kainate-type receptor (3H-KA), IC50 [4] [µM] | minimal effective concentration ([5]; Rattus norvegicus, Neuron) [µM] | Tested Retention Time (percentage to control group), latency ([6]; 1 mg/kg) | Tested Retention Time (percentage to control group), latency ([6]; 10 mg/kg, * in table: p < 0.05) | Effect on memory dysfunction / latency (in words) [6] | Affinity to the Kainate-type-receptor (in words) [4] | Affinity to the NMDA-type-receptor (in words) [3] | minimal effective concentration ([5]; listed as 72 (hydrochloride)) [µM]
CCc1[nH]oc(=O)c1C[C@H](N)C(=O)O [Compound 81] | 0.67 | strong affinity | high affinities to the 3 sub-type receptors | 35 | 17 | ≥ 1 |  |  |  |  |  | 
N[C@@H](Cc1c(-c2ccccc2)[nH]oc1=O)C(=O)O [Compound 87] | 15 |  | high affinities to the 3 sub-type receptors | 11 | 26 | 30 |  |  |  |  |  | 
Cc1[nH]oc(=O)c1C[C@H](N)C(=O)O [Compound 75] | 0.31 | strong affinity | high affinities to the 3 sub-type receptors | 11 | 7.3 | ≥ 1 | 205 percentage to control group | 184 percentage to control group | prolong the latency significantly | strong affinity |  | 
N[C@@H](Cc1c(C2CC2)[nH]oc1=O)C(=O)O [Compound 173] | 0.12 | strong affinity | high affinities to the 3 sub-type receptors | 13 | 3.8 | ≥ 0.3 |  |  |  | strong affinity |  | 
N[C@@H](C(=O)O)c1c[nH]oc1=O [Compound 149] | > 100 |  | differences in their affinities | 5.8 | > 100 | ≥ 30 |  |  |  |  | high affinity | 
Cc1[nH]oc(=O)c1C[C@@H](N)C(=O)O [Compound 78] | 3.9 | strong affinity | high affinities to the 3 sub-type receptors | 68 | 98 | ≥ 30 | 179 percentage to control group | 222 percentage to control group | prolong the latency significantly |  |  | 
Cc1[nH]oc(=O)c1[C@@H](N)C(=O)O [Compound 155] | > 100 |  | differences in their affinities | 8.3 | > 100 | ≥ 10 |  |  |  |  | high affinity | 
N[C@@H](Cc1c[nH]oc1=O)C(=O)N1CCCCC1C(=O)O (stereo partly shown) [Compound 132] | 1 | strong affinity | high affinities to the 3 sub-type receptors | 6.3 | 4.5 | ≥ 300 |  |  |  | strong affinity | high affinity | 
N[C@@H](Cc1c(C2CCCC2)[nH]oc1=O)C(=O)O [Compound 158] | 0.31 | strong affinity | differences in their affinities | > 100 | 57 | ≥ 0.3 |  |  |  |  |  | 
N[C@H](Cc1c[nH]oc1=O)C(=O)O [Compound 72] | 14 |  | high affinities to the 3 sub-type receptors | 6.2 | 37 | ≥ 300 | 217 percentage to control group | 278 percentage to control group | prolong the latency significantly |  | high affinity | 300
CCc1[nH]oc(=O)c1[C@@H](N)C(=O)O [Compound 180] | > 100 |  | differences in their affinities | 7.9 | > 100 | ≥ 30 |  |  |  |  | high affinity | 
CC(C)c1[nH]oc(=O)c1C[C@H](N)C(=O)O [Compound 84] | 3.8 |  | high affinities to the 3 sub-type receptors | > 100 | 67 | ≥ 3 |  |  |  |  |  | 
N[C@@H](CCC(=O)O)C(=O)O [Glutamic acid, reference compound] |  |  |  |  |  |  |  | 101 percentage to control group |  |  |  | 
